Reference: patent publication US6352989B1, “Nitrogenous heterocyclic derivatives and medicine thereof” (Eisai Co., Ltd., priority 1998, dated 2002)

Work on `CNc1nc(-c2cccc(NC(=O)c3ccccc3)c2)c2cc(OC)c(OC)cc2n1` [Example 1, 4-(3-Benzoylaminophenyl)-6,7-dimethoxy-2-methylaminoquinazoline] yielded a melting point of 201 to 203 °C.
With `CNc1nc(-c2cccc(NC(=O)c3ccccn3)c2)c2cc(OC)c(OC)cc2n1` [Example 3, 6,7-Dimethoxy-2-methylamino-4-[3-(2-pyridinecarbonylamino)phenyl]quinazoline] the melting point was 175 to 177 °C.
In the case of `CNc1nc(-c2cccc(NC(=O)c3cccnc3)c2)c2cc(OC)c(OC)cc2n1` [Example 4, 6,7-Dimethoxy-2-methylamino-4-[3-(3-pyridinecarbonylamino)phenyl]quinazoline], the melting point is reported as 251 to 253 °C.
In the case of `CNc1nc(-c2cccc(NC(=O)c3ccc4c(c3)OCO4)c2)c2cc(OC)c(OC)cc2n1` [Example 5, 6,7-Dimethoxy-2-methylamino-4-[3-(3,4-methylenedioxybenzoylamino)phenyl]quinazoline], the melting point is reported as 205 to 207 °C.
Work on `CNc1nc(-c2cccc(NC(=O)Cc3ccccc3)c2)c2cc(OC)c(OC)cc2n1` [Example 6, 6,7-Dimethoxy-2-methylamino 4-[3-(phenylacetylamino)phenyl]quinazoline] yielded a melting point of 175 to 177 °C.
`CNc1nc(-c2cccc(NC(=O)CCc3ccccc3)c2)c2cc(OC)c(OC)cc2n1` [Example 7, 6,7-Dimethoxy-2-methylamino-4-[3-(3-phenylpropanoylamino)phenyl]quinazoline] showed a melting point of 180 to 182 °C.
`CNc1nc(-c2cccc(NC(=O)c3ccccc3Cl)c2)c2cc(OC)c(OC)cc2n1` [Example 8, 4-[3-(2-Chlorobenzoylamino)phenyl]-6,7-dimethoxy-2-methylaminoquinazoline] showed a melting point of 197 to 199 °C.
`CNc1nc(-c2cccc(NC(=O)c3cccc(Cl)c3)c2)c2cc(OC)c(OC)cc2n1` [Example 9, 4-[3-(3-Chlorobenzoylamino)phenyl]-6,7-dimethoxy-2-methylaminoquinazoline] showed a melting point of 124 to 126 °C.
For `CNc1nc(-c2cccc(NC(=O)c3ccc(Cl)cc3)c2)c2cc(OC)c(OC)cc2n1` [Example 10, 4-[3-(4-Chlorobenzoylamino)phenyl]-6,7-dimethoxy-2-methylaminoquinazoline], the melting point was 193 to 195 °C.
`CNc1nc(-c2cccc(NC(=O)c3ccccc3OC)c2)c2cc(OC)c(OC)cc2n1` [Example 11, 6,7-Dimethoxy-4-[3-(2-methoxybenzoylamino)phenyl]-2-methylaminoquinazoline] showed a melting point of 194 to 196 °C.
For `CNc1nc(-c2cccc(NC(=O)c3cccc(OC)c3)c2)c2cc(OC)c(OC)cc2n1` [Example 12, 6,7-Dimethoxy-4-[3-(3-methoxybenzoylamino)phenyl]-2-methylaminoquinazoline], the melting point was 193 to 195 °C.
Work on `CNc1nc(-c2cccc(NC(=O)c3ccc(OC)cc3)c2)c2cc(OC)c(OC)cc2n1` [Example 13, 6,7-Dimethoxy-4-[3-(4-methoxybenzoylamino)phenyl]-2-methylaminoquinazoline] yielded a melting point of 219 to 221 °C.
For `CNc1nc(-c2cccc(NC(=O)c3ccc(Cl)c(Cl)c3)c2)c2cc(OC)c(OC)cc2n1` [Example 15, 4-[3-(3,4-Dichlorobenzoylamino)phenyl]-6,7-dimethoxy-2-methylaminoquinazoline], the melting point was 134 to 136 °C.
Work on `CNc1nc(-c2cccc(NC(=O)C3CC3)c2)c2cc(OC)c(OC)cc2n1` [Example 16, 4-(3-Cyclopropanoylaminophenyl)-6,7-dimethoxy-2-methylaminoquinazoline] yielded a melting point of 205 to 207 °C.
With `CNc1nc(-c2cccc(NC(=O)c3cc(OC)c(OC)c(OC)c3)c2)c2cc(OC)c(OC)cc2n1` [Example 19, 6,7-Dimethoxy-4-methylamino-4-[3-(3,4,5-trimethoxybenzoylamino)phenyl]quinazoline] the melting point was 122 to 124 °C.
Compound `CNc1nc(-c2cccc(NC(=O)c3ccc(OCc4ccccc4)cc3)c2)c2cc(OC)c(OC)cc2n1` [Example 20, 4-[3-(4-Benzyloxybenzoylamino)phenyl]-6,7-dimethoxy-2-methylaminoquinazoline] has a melting point of 110 to 112 °C.
Compound `CNc1nc(-c2cccc(NC(=O)c3cccc(OCc4ccccc4)c3)c2)c2cc(OC)c(OC)cc2n1` [Example 22, 4-[3-(3-Benzyloxybenzoylamino)phenyl]-6,7-dimethoxy-2-methylaminoquinazoline] has a melting point of 110 to 112 °C.
In the case of `CNc1nc(-c2cccc(NC(=O)c3cccc(O)c3)c2)c2cc(OC)c(OC)cc2n1` [Example 23, 6,7-Dimethoxy-4-[-(3-hydroxybenzoylamino)phenyl]-2-methylaminoquinazoline], the melting point is reported as 265 to 267 °C.
`CNc1nc(-c2cccc(NC(=O)c3ccccc3OCc3ccccc3)c2)c2cc(OC)c(OC)cc2n1` [Example 24, 4-[3-(2-Benzyloxybenzoylamino)phenyl]-6,7-dimethoxy-2-methylaminoquinazoline] gave a melting point of 192 to 194 °C.
Work on `CNc1nc(-c2cccc(NC(=O)c3ccccc3O)c2)c2cc(OC)c(OC)cc2n1` [Example 25, 6,7-Dimethoxy-4-[3-(2-hydroxybenzoylamino)phenyl]-2-methylaminoquinazoline] yielded a melting point of 212 to 214 °C.
`CNc1nc(-c2cccc(NC(=O)c3ccc(SC)cc3)c2)c2cc(OC)c(OC)cc2n1` [Example 26, 6,7-Dimethoxy-2-methylamino-4-[3-(4-methylthiobenzoylamino)phenyl]quinazoline] gave a melting point of 209 to 211 °C.
With `CNc1nc(-c2cccc(NC(=O)c3ccc([S+](C)[O-])cc3)c2)c2cc(OC)c(OC)cc2n1` (centres unmarked) [Example 27, 6,7-Dimethoxy-2-methylamino-4-[3-(4-methylsulfinylbenzoylamino)phenyl]quinazoline] the melting point was 246 to 248 °C.
Work on `CNc1nc(-c2cccc(NC(=O)c3ccc(S(C)(=O)=O)cc3)c2)c2cc(OC)c(OC)cc2n1` [Example 28, 6,7-Dimethoxy-2-methylamino-4-[3-(4-methylsulfonylbenzoylamino)phenyl]quinazoline] yielded a melting point of 277 to 279 °C.
For `CNc1nc(-c2cccc(NC(=O)c3ccc(Cl)nc3)c2)c2cc(OC)c(OC)cc2n1` [Example 29, 4-[3-(6-Choloronicotinoylamino)phenyl]-6,7-dimethoxy-2-methylaminoquinazoline], the melting point was 157 to 159 °C.
For `CNc1nc(-c2cccc(NC(=O)c3ccnc(Cl)c3)c2)c2cc(OC)c(OC)cc2n1` [Example 33, 4-[3-(2-Chloroisonicotinoylamino)phenyl]-6,7-dimethoxy-2-methylaminoquinazoline], the melting point was 151 to 153 °C.
In the case of `CNc1nc(-c2cccc(NS(=O)(=O)c3ccccc3)c2)c2cc(OC)c(OC)cc2n1` [Example 35, 4-(3-Benzenesulfonamidephenyl)-6,7-dimethoxy-2-methylaminoquinazoline], the melting point is reported as 230 to 232 °C.
`CNc1nc(-c2cccc(NC(=O)Nc3ccccc3)c2)c2cc(OC)c(OC)cc2n1` [Example 36, 6,7-Dimethoxy-2-methylamino-4-[3-(3-phenylureido)phenyl]quinazoline] gave a melting point of 218 to 220 °C.
Work on `CNc1nc(-c2cccc(N3C(=O)c4ccccc4C3=O)c2)c2cc(OC)c(OC)cc2n1` [Example 37, 6,7-Dimethoxy-2-methylamino-4-(3-phthalimidephenyl) quinazoline] yielded a melting point of 280 to 282 °C.
Compound `CNc1nc(-c2cccc(NCc3ccccc3)c2)c2cc(OC)c(OC)cc2n1` [Example 38] has a melting point of 146 to 148 °C.
Compound `CCCN(Cc1ccccc1)c1cccc(-c2nc(NC)nc3cc(OC)c(OC)cc23)c1` [Example 41, 4-[3-(N-benzyl-N-propylamino)phenyl]-6,7-dimethoxy-2-methylaminoquinazoline] has a melting point of 75 to 77 °C.
In the case of `CNc1nc(-c2cccc(N(C)C(=O)c3ccccc3)c2)c2cc(OC)c(OC)cc2n1` [Example 42, 4-[3-(N-benzoyl-N-methylamino)phenyl]-6,7-dimethoxy-2-methylaminoquinazoline], the melting point is reported as 198 to 200 °C.
For `CNc1nc(-c2cccc(-n3cccc3)c2)c2cc(OC)c(OC)cc2n1` [Example 43, 6,7-Dimethoxy-2-methylamino-4-[3-(1-pyrrolyl)phenyl]quinazoline], the melting point was 199 to 201 °C.
`CNc1nc(-c2cccc(-c3ccccc3)c2)c2cc(OC)c(OC)cc2n1` [Example 46, 4-(3-Biphenylyl)-6,7-dimethoxy-2-methylaminoquinazoline] gave a melting point of 183 to 185 °C.
For `CNc1nc(-c2cccc(-c3cccnc3)c2)c2cc(OC)c(OC)cc2n1` [Example 47, 6,7-Dimethoxy-2-methylamino-4-[3-(3-pyridyl)phenyl]quinazoline], the melting point was 186 to 188 °C.
In the case of `CNc1nc(-c2cccc(-c3ccc(C)c(C)c3)c2)c2cc(OC)c(OC)cc2n1` [Example 48, 6,7-Dimethoxy-4-(3′,4′-dimethyl-3-biphenylyl)-2-methylaminoquinazoline], the melting point is reported as 149 to 151 °C.
`CNc1nc(-c2cccc(-c3ccc4nccn4c3)c2)c2cc(OC)c(OC)cc2n1` [Example 50, 6,7-Dimethoxy-4-[3-(imidazo[1.2-a]pyridine-6-yl)phenyl]-2-methylaminoquinazoline] showed a melting point of 237 to 239 °C.
`CNc1nc(-c2cccc(-c3cccc([S+](C)[O-])c3)c2)c2cc(OC)c(OC)cc2n1` (centres unmarked) [Example 55, 6,7-Dimethoxy-2-methylamino-4-(3-methylsulfinyl-3-biphenylyl)quinazoline] showed a melting point of 163 to 165 °C.
For `CNc1nc(-c2cccc(-c3cncc(OC)c3)c2)c2cc(OC)c(OC)cc2n1` [Example 57, 6,7-Dimethoxy-4-[3-(5-methoxy-3-pyridyl)phenyl]-2-methylaminoquinazoline], the melting point was 225 to 227 °C.
For `CNc1nc(-c2cccc(-c3cncc([S+](C)[O-])c3)c2)c2cc(OC)c(OC)cc2n1` (centres unmarked) [Example 59, 6,7-Dimethoxy-2-methylamino-4-[3-(5-methylsulfinyl-3-pyridyl)phenyl]quinazoline], the melting point was 208 to 210 °C.
For `CNc1nc(-c2cccc(CCc3ccccc3)c2)c2cc(OC)c(OC)cc2n1` [Example 66, 6,7-Dimethoxy-2-methylamino-4-[3-(2-phenylethyl)phenyl]quinazoline], the melting point was 95 to 97 °C.
Compound `CNc1nc(-c2cccc(C#Cc3cccnc3)c2)c2cc(OC)c(OC)cc2n1` [Example 67, 6,7-Dimethoxy-2-methylamino-4-[3-[2-(3-pyridyl)ethynyl]phenyl]quinazoline] has a melting point of 103 to 105 °C.
